Laboratory results from BindingDB's records for patent US20240174674 (Applied Pharmaceutical Science, 2024).

Columns and labels:
[1] = molecular target: Proto-oncogene tyrosine-protein kinase receptor Ret [G810R] (Human, UniProt P07949, G810R); assay: HTRF Assay
[2] = molecular target: Proto-oncogene tyrosine-protein kinase receptor Ret [V804M] (Human, UniProt P07949, V804M); assay: HTRF Assay
Chain of Proto-oncogene tyrosine-protein kinase receptor Ret [V804M] (P07949 29-1114 V804M limits assumed): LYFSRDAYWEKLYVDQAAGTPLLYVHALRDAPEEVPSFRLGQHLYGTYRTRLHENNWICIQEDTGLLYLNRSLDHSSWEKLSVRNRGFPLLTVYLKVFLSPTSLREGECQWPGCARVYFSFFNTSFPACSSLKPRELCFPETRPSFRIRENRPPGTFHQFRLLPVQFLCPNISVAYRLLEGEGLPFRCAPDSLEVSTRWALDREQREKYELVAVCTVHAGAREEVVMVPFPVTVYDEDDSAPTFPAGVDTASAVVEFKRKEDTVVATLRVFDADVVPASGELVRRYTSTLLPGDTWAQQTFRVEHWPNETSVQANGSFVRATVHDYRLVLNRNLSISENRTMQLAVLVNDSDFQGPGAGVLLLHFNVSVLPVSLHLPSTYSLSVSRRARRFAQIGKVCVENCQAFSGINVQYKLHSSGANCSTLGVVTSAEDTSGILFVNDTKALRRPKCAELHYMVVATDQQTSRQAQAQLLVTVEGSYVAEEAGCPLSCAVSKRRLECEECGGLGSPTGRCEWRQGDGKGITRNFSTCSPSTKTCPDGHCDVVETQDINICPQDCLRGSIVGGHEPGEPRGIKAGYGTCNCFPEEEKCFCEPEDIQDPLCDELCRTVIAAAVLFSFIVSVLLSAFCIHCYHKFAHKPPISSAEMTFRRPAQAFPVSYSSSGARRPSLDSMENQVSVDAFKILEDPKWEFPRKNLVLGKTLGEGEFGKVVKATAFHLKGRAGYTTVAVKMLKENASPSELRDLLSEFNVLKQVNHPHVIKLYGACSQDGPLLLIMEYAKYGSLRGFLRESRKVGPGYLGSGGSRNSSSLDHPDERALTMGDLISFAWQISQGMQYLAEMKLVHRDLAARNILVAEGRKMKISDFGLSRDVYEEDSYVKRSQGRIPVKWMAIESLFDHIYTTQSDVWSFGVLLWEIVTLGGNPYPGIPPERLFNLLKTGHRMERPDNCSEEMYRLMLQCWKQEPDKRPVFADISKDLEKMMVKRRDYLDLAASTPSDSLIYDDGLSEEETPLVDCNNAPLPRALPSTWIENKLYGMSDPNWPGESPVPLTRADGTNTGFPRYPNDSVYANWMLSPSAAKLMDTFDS

Chain of Proto-oncogene tyrosine-protein kinase receptor Ret [G810R] (P07949 29-1114 G810R limits assumed): as the sequence (P07949 29-1114 V804M limits assumed) above, with M776V, G782R counted along it

IC50 [1] | IC50 [2] | SMILES
2.6 nM |  | CCOc1cc(-c2ccc(N3C[C@H](Oc4ccccn4)[C@@H](N)C3)nc2)c2c3cn[nH]c3nn2c1 [US20240174674, Compound 31]
2.2 nM | 0.1 nM | CCOc1cc(-c2ccc(N3CC[C@H](NC(=O)CC(C)C)[C@H](O)C3)nc2)c2c3cn[nH]c3nn2c1 [US20240174674, Compound 40]
12.1 nM |  | CCOc1cc(-c2ccc(N3C[C@H]4C[C@@H](NC(=O)c5c(F)cccc5Cl)C[C@H]4C3)nc2)c2c3cn[nH]c3nn2c1 [US20240174674, Compound 176]
5 nM |  | CCOc1cc(-c2ccc(N3CC[C@H](NC(=O)c4ncc(F)cc4Cl)[C@H](O)C3)nc2)c2c3cn[nH]c3nn2c1 [US20240174674, Compound 285]
